Here are results for 2 compounds from patent US5849710A, “Substituted indolylmethylene-oxindole analogues as tyrosine kinase inhibitors” (Pharmacia & Upjohn S.p.A., priority 1995, dated 1998).

Assay [1] deals with p45 v-abl tyrosine kinase. In words: in-vitro p45 v-abl kinase assay ((Val^5)-Angiotension II phosphorylation). Conditions: ATP 50 μM, fixed peptide concentration, 40 ng abl-kinase, pH 8.0, 30° C.; read-out: Inhibition of p45 kinase, IC50 v-abl. The class given is biochemical, Abelson murine leukaemia virus. The protocol:
p45 v-abl Kinase Purification
The enzyme used in our test was the p45 v-abl tyrosine kinase which represents the catalytic domain of the Abelson tyrosine kinase (isolated from the Abelson murine leukaemia virus). The p45 v-abl kinase was produced and isolated as described by Wang et al. in J. Biol. Chem. 260, 64 (1985) and by Ferguson et al. in J. Biol. Chem. 260, 3652 (1985) and in Biochem. J. 257, 321 (1989).
(Val^5)-Angiotension II phosphorylation was performed by incubation with 40 ng of purified abl-kinase and (γ-^32 p)-ATP, in 50 μl of buffer containing Tris-HCl 25 mM, pH 8.0, MgCl2 10 mM and dithiothreitol 0.1 mM (kinase buffer). The reaction mixture was incubated for the indicated time at 30° C. and the reaction stopped by adding 50 μl of 5% trichloroacetic acid. After a brief incubation on ice, tubes were centrifuged. The supernatants were spotted on phosphocellulose paper squares (Whatman P-81) and washed extensively in acetic acid. The radioactivity bound to dried phosphocellulose squares was measured in a liquid scintillation counter. IC50 values were calculated from triplicated determinations of each experimental point. Each inhibitor was tested at concentrations ranging from […] in the presence of fixed concentrations of peptide (2 Mm) and ATP (50 μM). […]

A further assay concerns K562 cells. In words: K562 cell growth inhibition assay. The settings on record: human chronic myeloid leukemia K562 cells, 72 h, cell count vs untreated control. The class given is cell-based. On the procedure:
K562 Cell Growth Inhibition Assay
K562 cells, a human myelogenous leukemia cell line, were seeded into a 24 wells tissue culture plate (Falcon 3047) (10000/well) in the presence of increasing concentrations of the compounds. After 72 h, cells were harvested and were counted using a cell counter (Coulter Counter-ZM). The percent of inhibition was evaluated in respect to the untreated control cells.
The inhibitory activity data for a representative group of compounds according to the present invention, obtained both in the in-vitro p45 v-abl kinase assay and in the in-vivo human chronic myeloid leukemia K562 cell growth inhibition assay described above, are set out in following Table 1.

Turning to `O=C1Nc2ccc(C(=O)CN3CCCCC3)cc2C1=Cc1c[nH]c2ccccc12` [FCE 28484, 3-(indol-3-ylmethylene)-5-(2-piperidin-1-yl-acetyl)-2-indolinone], the IC50 was determined as 780 nM in assay [1] and 4820 nM in the assay on K562 cells.
In the case of `COc1ccc2[nH]cc(C=C3C(=O)Nc4ccc(NC(=O)[C@H](C)NC(=O)[C@@H](N)CCC(=O)O)cc43)c2c1` [FCE 28437, 5-L-glutamyl-L-alanylamino-3-[(5'-methoxy-3'-indolyl)methylene]-2-indolinone], the IC50 in assay [1] was 500 nM; with K562 cells it was 14800 nM.

What is called IC50 is the concentration that gives 50% inhibition.
